# Measurements published in PubChem BioAssay (NCI).
#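 Briefly, cells in 96-well plates were exposed to five compound concentrations for 48 h, and endpoints were estimated by linear interpolation. Abbreviation: GI50, concentration required for 50% inhibition of growth. TGI denotes the concentration required for complete inhibition of growth.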
# How the values were obtained:
# Experiment in all cases: growth of human tumour cells (NCI), 48 h
# [1] = tested on: SK-MEL-5 melanoma
# [2] = tested on: TK-10 renal
# [3] = tested on: M14 melanoma
# [4] = tested on: MALME-3M melanoma
# [5] = tested on: RPMI-8226 leukemia
# [6] = tested on: K-562 leukemia
# [7] = tested on: MDA-MB-435
# [8] = tested on: KM20L2 colon
# [9] = tested on: SNB-78 CNS
# [10] = tested on: HOP-62 NSCLC
# [11] = tested on: DLD-1 colon
# [12] = tested on: EKVX NSCLC
Compound,TGI [1] [µM],TGI [2] [µM],TGI [3] [µM],TGI [4] [µM],TGI [5] [µM],TGI [6] [µM],TGI [7] [µM],TGI [8] [µM],TGI [9] [µM],TGI [10] [µM],TGI [11] [µM],TGI [12] [µM],GI50 [1] [µM],GI50 [2] [µM],GI50 [3] [µM],GI50 [10] [µM],GI50 [4] [µM],GI50 [12] [µM],GI50 [6] [µM],GI50 [7] [µM]
Cc1cc(N(CCCCl)CCCCl)ccc1C=Nc1cccc(Cl)c1,27.4,27.5,60.5,22.8,0.231,22.7,36.2,,,,,,,,,,,,,
C[n+]1ccc(-c2cc[n+](C)cc2)cc1,> 35.6,> 100,> 35.9,0.981,> 100,> 100,,> 100,> 58.4,66.5,> 47.2,> 60.2,,,,,,,,
c1ccc2sc(SCN(C3CCCCC3)C3CCCCC3)nc2c1,> 100,> 100,> 100,> 100,,> 100,> 100,,,> 100,,> 100,,,,,,,,
Nc1ccc(Nc2c3ccccc3nc3ccccc23)cc1,> 10,> 10,> 10,8.96,> 10,> 10,> 10,,,> 10,,> 10,,,,,,,,
Nc1nnc(N)n1NC(=O)C(=O)Nc1ccc([N+](=O)[O-])cc1,> 100,> 100,,> 100,> 100,> 100,,> 100,> 100,> 100,> 100,> 100,,,,,,,,
COc1cc2c(cc1Oc1ccc(OC)c3c1CC1c4c(cc(OC)c(OC)c4-3)CCN1C)CC1c3c(cc(OC)c(OC)c3-2)CCN1C (configuration not stated),2.92,,,3.38,3.97,3.92,,3.59,20.2,32.5,9.17,10.8,,,,,,,,
Fc1ccc(-c2nnc3sc(COc4ccccc4Cl)nn23)cc1Cl,69.1,> 100,> 100,> 100,,67.6,> 100,,,> 100,,> 100,23.4,> 100,34.9,49.5,70.9,39.2,24.6,49.5
O=C1c2ccccc2C(=O)c2c1ccc(C(=O)O)c2-c1ccc2ccccc2c1,39.4,> 100,54.1,70.7,83.8,85.7,60,,,> 100,,81,,,,,,,,
CCCCCCCCCCCCCCCCOCC(COP(=O)([O-])OCC[n+]1ccc(N(C)C)cc1)OCC (configuration not stated),31.6,28.9,26.7,33,17.1,36.6,31.6,,,26.3,,,,,,,,,,
COc1ccc(CC2c3cc(OC)c(OC)c(OC)c3CC[N+]2(C)C)cc1Oc1ccc(CC2c3cc4c(c(OC)c3CCN2C)OCO4)cc1 (configuration not stated),> 100,> 100,> 100,> 100,,> 100,> 100,,,,,> 100,,,,,,,,
Cc1cc(=O)oc2c1cc(OCC(=O)OCCN1CCCCC1)c1occ(C)c12,> 100,> 100,> 100,> 100,> 100,> 100,,> 100,> 100,,> 100,> 100,,,,,,,,
COc1cc(O)c2c(c1)C(=O)c1cc(C)cc(O)c1C2=O,> 100,,> 100,> 100,> 100,> 100,,> 100,> 100,> 100,> 100,> 100,,,,,,,,
COc1cc(C)c2c(=O)c3c(oc2c1)C(=O)c1c(O)c(OC)cc(O)c1C3=O,2.33,,,3.83,4.48,4.39,,19.9,7.2,3.98,10.1,3.25,,,,,,,,
O=c1cc(O)c2ccccc2o1,> 100,> 100,> 100,> 100,> 100,> 100,> 100,,,> 100,,> 100,,,,,,,,
CC(C)=CCC[C@](C)(O[C@@H]1O[C@H](CO)[C@@H](O)[C@H](O)[C@H]1O)[C@H]1CC[C@]2(C)[C@@H]1[C@H](O)C[C@@H]1[C@@]3(C)CC[C@H](O)C(C)(C)[C@@H]3[C@@H](O[C@@H]3O[C@H](CO)[C@@H](O)[C@H](O)[C@H]3O)C[C@]12C,> 100,> 100,> 100,> 100,> 100,> 100,> 100,,,> 100,,> 100,,,,,,,,
Cn1c(Sc2ccc(-c3cccnc3)n2C)ccc1-c1cccnc1,30.4,32.4,37,23.3,23.4,13.8,29.1,,,36,,> 56.8,,,,,,,,
COc1c(Cl)cc(S(=O)O)cc1Cl,,> 100,> 100,> 100,,> 100,,,> 100,> 100,> 100,> 100,,,,,,,,
NC(=O)Nc1cc(O)ccc1N=Nc1ccc(S(=O)(=O)Nc2ccccn2)cc1,> 100,> 100,> 100,> 100,> 100,> 100,,> 100,> 100,> 100,,> 100,,,,,,,,
CCOC(=O)NC,> 100,> 100,> 100,> 100,> 100,> 100,> 100,,,> 100,,> 100,,,,,,,,
